From patent publication US9650382B2, “Heteroarylamide derivatives having antiandrogenic properties” (MEDEIA THERAPEUTICS LTD, priority 2012, dated 2017) come the findings set out here.

Where a chain is given by its changes, count along the chain named.

Holding throughout (assay type): cell-based
The target in one assay is T1, WT AR (Homo sapiens, UniProt P10275).
T1 construct: expressed in transfected cells; host or cells: COS-1 cells (transient transfection); alternatively non-human mammalian cells of the INDIGO Biosciences Human AR Reporter Assay System
T1 sequence (P10275 1-920): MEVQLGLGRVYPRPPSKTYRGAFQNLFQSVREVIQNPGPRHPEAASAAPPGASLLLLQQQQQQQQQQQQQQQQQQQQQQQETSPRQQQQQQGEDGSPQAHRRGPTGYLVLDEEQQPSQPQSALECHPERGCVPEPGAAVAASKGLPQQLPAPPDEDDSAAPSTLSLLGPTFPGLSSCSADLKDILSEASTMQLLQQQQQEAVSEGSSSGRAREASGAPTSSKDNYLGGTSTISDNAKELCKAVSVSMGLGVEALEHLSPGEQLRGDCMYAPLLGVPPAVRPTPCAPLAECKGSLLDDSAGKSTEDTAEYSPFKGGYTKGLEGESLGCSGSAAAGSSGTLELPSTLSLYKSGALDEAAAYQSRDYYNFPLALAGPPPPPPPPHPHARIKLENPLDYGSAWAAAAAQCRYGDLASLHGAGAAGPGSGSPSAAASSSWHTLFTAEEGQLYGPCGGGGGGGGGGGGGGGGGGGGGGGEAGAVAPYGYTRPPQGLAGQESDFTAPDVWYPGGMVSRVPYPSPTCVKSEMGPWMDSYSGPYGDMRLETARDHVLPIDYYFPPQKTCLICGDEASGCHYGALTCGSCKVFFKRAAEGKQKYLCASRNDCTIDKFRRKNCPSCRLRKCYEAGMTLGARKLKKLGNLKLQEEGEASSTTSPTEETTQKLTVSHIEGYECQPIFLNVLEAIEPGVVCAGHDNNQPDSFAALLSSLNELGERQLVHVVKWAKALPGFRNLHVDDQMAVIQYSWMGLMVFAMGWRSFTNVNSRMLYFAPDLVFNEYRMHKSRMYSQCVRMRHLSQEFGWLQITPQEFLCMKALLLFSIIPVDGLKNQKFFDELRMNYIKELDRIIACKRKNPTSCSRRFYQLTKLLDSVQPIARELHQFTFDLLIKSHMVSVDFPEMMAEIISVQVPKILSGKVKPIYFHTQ
As to the kind of experiment: Antagonism in WT AR, AR transactivation reporter gene assay (COS-1 cells, or INDIGO Human AR Reporter Assay System), competitive setting with reference agonist. The conditions noted are these: for activity at 1 µM / activity at 10 µM: COS-1, read-out: Relative LUC activity (%) indicating residual androgen activity in relation to reference agonist (100%); for Relative LUC activity (%) indicating residual androgen activity in relation to reference agonist (100%): competitive setting with reference agonist (50 nM testosterone or 400 pM FIT). The procedure:
After 18 h, reporter gene activities (LUC and beta-galactosidase) were determined according to standard methods. The data are expressed as relative LUC activity (luciferase light units divided by beta-galactosidase A420nm to control for transfection efficiency) of a given compound in relation to the activity of a reference test item (=100%).
Alternatively, commercial Human AR Reporter Assay System (INDIGO Biosciences) was used. In this assay, non-human mammalian cells are engineered to express human WT AR together with LUC reporter gene linked to AR-responsive promoter. 400 pM 6-alpha-FI testosterone, FIT, was used as a reference agonist in a competitive setting.
Antagonism in WT AR of compounds of the present invention was measured in AR transactivation assay in COS-1 cells in competitive setting using testosterone as a reference agonist as described above. Alternatively INDIGO Bioscience's Human AR Reporter Assay System was utilized. […] Relative LUC activity representing AR-dependent transcription obtained by exposure to reference agonist alone was set to 100%.
In general terms: In a reporter assay the amount or activity of a reporter protein is the signal.

In the next assay the target is T2, T877A AR (Homo sapiens, UniProt P10275, T878A).
T2 construct: expressed in transfected cells; host or cells: COS-1 cells
T2 sequence (P10275 1-920 T878A): T1 sequence (P10275 1-920) with T878A
Nature of the assay: Agonism in T877A mutant AR, AR transactivation assay in COS-1 cells, test compounds alone. The conditions noted are these: 10 microM; compound alone. The protocol: (§1) COS-1 cells (American Type Culture Collection, ATCC) were cultured in Dulbecco's Modified Eagle Medium (DMEM) supplemented with 10% fetal bovine serum (FBS), penicillin (6.25 U/ml) and streptomycin (6.25 μg/ml) and seeded onto 48-well plates (50 000 cells/well) one day before transfection. Transfection media containing 2.5% charcoal-stripped FBS in DMEM was changed on cells 4 h prior to transfection. Cells were transfected with 50 ng of luciferase (LUC) reporter gene plasmid (pPB-286/+32-LUC; PB, probasin promoter), 5 ng of AR expression plasmid (pSG5-hAR), and 5 ng of pCMVβ (an internal, beta-galactosidase control for transfection efficiency and cell growth) using TransIT-LT1 reagent (Mirus Bio Corporation) according to the manufacturer's instructions. […] After 18 h, reporter gene activities (LUC and beta-galactosidase) were determined according to standard methods. The data are expressed as relative LUC activity (luciferase light units divided by beta-galactosidase A420nm to control for transfection efficiency) of a given compound in relation to the activity of a reference test item (=100%).
Agonism in T877A AR of compounds of the present invention was measured in AR transactivation assay in COS-1 cells as described above except that AR expression vector harboring the T877A mutation was used. The transfected cells were exposed to test compounds alone. Testosterone was used as reference agonist, and its' relative LUC activity representing AR-dependent transcription was set to 100%.

The next assay addresses T3, W741L AR (Homo sapiens, UniProt P10275, W742L).
T3 construct: expressed in transfected cells; host or cells: COS-1 cells
T3 sequence (P10275 1-920 W742L): T1 sequence (P10275 1-920) with W742L
As to the kind of experiment: Agonism in W741L mutant AR, AR transactivation assay in COS-1 cells, test compounds alone. The conditions noted are these: 10 microM; compound alone. The procedure:
as §1
Agonism in W741L AR of compounds of the present invention was measured in AR transactivation assay in COS-1 cells as described above except that AR expression vector harboring the W741L mutation was used instead of the WT AR. The transfected cells were exposed to test compounds alone.

As to `CCS(=O)(=O)CC(O)(C(=O)Nc1ccc(C#N)c(C(F)(F)F)c1)c1ccc(Cl)nc1` (stereo not shown) [Example 1, 2-(6-chloropyridin-3-yl)-N-[4-cyano-3-(trifluoromethyl)phenyl]-3-(ethanesulfonyl)-2-hydroxypropanamide], at WT AR, the activity at 1 µM worked out at 37% and the activity at 10 µM is 8%. At T877A AR, the “Relative LUC activity (%) in T877A AR in relation to testosterone (100%)” value (shortened to “Relative LUC activity (%) in T877A AR”) is listed as 13%. Also, the “Relative LUC activity (%) in W741L AR in relation to BIC (100%)” value (“Relative LUC activity (%) in W741L AR” for short) at W741L AR was found to be 6%.

For the compound `CC(C)CCS(=O)(=O)CC(O)(C(=O)Nc1ccc(C#N)c(C(F)(F)F)c1)c1ccc(Cl)nc1` (stereo not shown) [Example 6, 2-(6-chloropyridin-3-yl)-N-[4-cyano-3-(trifluoromethyl)phenyl]-2-hydroxy-3-[(3-methylbutane)sulfonyl]propanamide], the entries for the “Relative LUC activity (%) indicating residual androgen activity in relation to reference agonist (100%)” value at WT AR (1 microM compound) and on WT AR (10 microM compound) were 28% and 7%, respectively. Besides, on T877A AR, the “Relative LUC activity (%) in T877A AR” value amounted to 4%. In addition, the “Relative LUC activity (%) in W741L AR” value at W741L AR is on record as 31%.

`N#Cc1ccc(NC(=O)C(O)(CS(=O)(=O)Cc2ccc(Cl)cc2)c2ccc(Cl)nc2)cc1Cl` (stereo not shown) [Example 8, N-(3-chloro-4-cyanophenyl)-3-{[(4-chlorophenyl)methane]sulfonyl}-2-(6-chloropyridin-3-yl)-2-hydroxypropanamide]: the “Relative LUC activity (%) indicating residual androgen activity in relation to reference agonist (100%)” value came to 32% on WT AR (1 microM compound) and 4% at WT AR (10 microM compound). Besides, on T877A AR, the “Relative LUC activity (%) in T877A AR” value is 2%. The “Relative LUC activity (%) in W741L AR” value at W741L AR is recorded as 4%.

Turning to `N#Cc1ccc(NC(=O)C(O)(CS(=O)(=O)c2ccc(Cl)cc2)c2ccc(Cl)nc2)cc1Cl` (stereo not shown) [Example 9, N-(3-chloro-4-cyanophenyl)-3-[(4-chlorobenzene)sulfonyl]-2-(6-chloropyridin-3-yl)-2-hydroxypropanamide], the “Relative LUC activity (%) indicating residual androgen activity in relation to reference agonist (100%)” value turned out to be 25% at WT AR (1 microM compound) and 13% at WT AR (10 microM compound). Also, the “Relative LUC activity (%) in T877A AR” value at T877A AR amounted to 3%. Also, on W741L AR, the “Relative LUC activity (%) in W741L AR” value is given as 23%.

Turning to `CC(C)S(=O)(=O)CC(O)(C(=O)Nc1ccc(C#N)c(C(F)(F)F)c1)c1ccc(Cl)nc1` (stereo not shown) [Example 12, 2-(6-chloropyridin-3-yl)-N-[4-cyano-3-(trifluoromethyl)phenyl]-2-hydroxy-3-(propane-2-sulfonyl)propanamide], on WT AR, the activity at 1 µM came out at 30% and the activity at 10 µM stood at 5%. Besides, on T877A AR, the “Relative LUC activity (%) in T877A AR” value is 4%. Moreover, the “Relative LUC activity (%) in W741L AR” value at W741L AR was 3%.

Take `N#Cc1ccc(NC(=O)C(O)(CS(=O)(=O)c2ccc(F)cc2)c2ccc(C(F)(F)F)nc2)cc1Cl` (stereo not shown) [Example 15, N-(3-chloro-4-cyanophenyl)-3-(4-fluorobenzenesulfonyl)-2-hydroxy-2-[6-(trifluoromethyl)pyridin-3-yl]propanamide]: on WT AR, the activity at 1 µM was 25% and the activity at 10 µM was determined as 3%.
